Laboratory results from US6512166B1, “Combinations of fungal cell wall degrading enzyme and fungal cell membrane affecting compound” (priority 1991, dated 2003).
Where two headings read alike, the source gives them in different places.

How the values were obtained:
Botrytis cinerea = assay: Inhibition of spore germination, Eppendorf tube assay (Examples I and II); assay type: cell-based; conditions: for expected percent inhibition for an additive response (Limpel's formula) at 0.5 µg/mL: read-out: Ee, expected effect from an additive response according to Limpel's formula, percent inhibition; for ED50 of fungicide (dose effective for 50% inhibition): Table 9
B. cinerea strain 12 = assay: Inhibition of spore germination, ELISA plate assay (Examples III-XVI, XVIII); assay type: cell-based, Botrytis cinerea; conditions: Table 21; concentration of miconazole for 50% inhibition, alone or with enzyme at its ED10 concentration
Method: (§1) The concentration where fungal cell wall degrading enzyme individually provides a specified percentage fungal inhibition or where antifungal fungal cell membrane affecting compound individually provides a specific percentage fungal inhibition can be determined as follows: Assays are performed under sterile conditions. Equal volumes of spore suspensions, 3× potato dextrose broth, and the test solution or suspension in 5 mM Tris-HCl (pH 6.0) or 5 mM potassium phosphate buffer (pH 6.7) are mixed. The control is the same as the test solution except for the control the antifungal agent is omitted. The assay mixtures (total volume 45 or 30 μl) are incubated on flat-bottomed ELISA plates, each containing 96 wells, with 2,000 to 3,000 spores per well, at 25° C. After 22 to 30 hours, the plates are placed under an inverted microscope. The percentage of conidia germinating is determined as the percentage of the first 100 spores randomly found in a well. In addition, the lengths of 20 germ tubes are measured and averaged. All experiments are performed twice, with three replicates for each treatment. The inhibition values obtained in the two experiments are combined and averaged, and standard deviations are calculated from the 6 data points. The values obtained for the control are taken as 0% inhibition and all other values are divided by the values obtained for the control and multiplied by 100% to obtain percent inhibition. Determination of concentration corresponding to a particular percent inhibition is carried out by subjecting dose-response curves to regression analysis by using a binomial regression of the third order, with R^2 ranging between 0.95 and 0.99.
(§2) Assays were carried out by the procedure described in the summary of the invention section. Dose response curves were obtained by probit analysis of data collected from two separate experiments with each experiment involving three treatment replicates.
Each of 8 antifungal fungal cell membrane affecting compounds were used in combination with each of 8 or 6 fungal cell wall degrading enzymes to provide 50% inhibition (ED50) of B. cinerea strain 12 spore germination. Each fungal cell wall degrading enzyme was used at a concentration giving 10% inhibition of spore germination when used alone in combination with an amount of antifungal fungal cell membrane affecting compound so the combination gave 50% inhibition of spore germination.
(§3) Dose response curves were determined for each antifungal fungal cell membrane affecting compound and for each fungal cell wall degrading enzyme singly. Then each fungal cell wall degrading enzyme at a concentration giving 10% inhibition when used alone was combined with increasing amounts of antifungal fungal cell membrane affecting compound. Then the concentration of antifungal fungal cell membrane affecting compound causing the ED50 for each combination was calculated by probit analysis of data collected from two experiments with three treatment replicates for each experiment. Assays for inhibition of spore germination were carried out as described in the summary of invention section above.
The relative level of synergism (RS below) for each combination was calculated by applying Limpel's formula: Ee=X+Y−(XY/100) as described in Richer, D. L, Pestic. Sci. 19, 309-315, 1987. In Limpel's formula, X and Y are the percentages of inhibition relative to each compound used alone and Ee is the expected effect for an additional (non-synergistic) effect. If the combination of the two agents produces an observed effect (Eo) greater than Ee, synergism exists, and as the difference between Eo and Ee increases, the level of synergism is greater. […]

[1] = tested on: Fusarium oxysporum strain FOP1; assay: Inhibition of spore germination, ELISA plate assay (Examples V-XIV, XVII); assay type: cell-based; conditions: Table 29; concentration of miconazole for 50% inhibition, alone or with enzyme at its ED10 concentration
Method: as §1, §2, §3
The relative level of synergism (RS below) for each combination was calculated by applying Limpel's formula: Ee=X+Y−(XY/100) as described in Richer, D. L, Pestic. Sci. 19, 309-315, 1987. In Limpel's formula, X and Y are the percentages of inhibition relative to each compound used alone and Ee is the expected effect for an additional (non-synergistic) effect. If the combination of the two agents produces an observed effect (Eo) greater than Ee, synergism exists, and as the difference between Eo and Ee increases, the level of synergism is greater. In this experiment, the X value (percentage inhibition by fungal cell wall degrading enzyme when used alone was chosen to be 10 (10% inhibition of spore germination when used alone) and the observed effect, Eo, was 50 (i.e., 50% inhibition of spore germination). The Y values were obtained from the determined concentrations of antifungal cell membrane affecting compound causing the ED50 for a combination and the dose response curves for the antifungal cell membrane affecting compound used alone—i.e., the Y value was the percent inhibition for the antifungal fungal cell membrane affecting compound when used alone for the concentration of antifungal fungal cell membrane affecting compound that was determined to cause the ED50 for the combination. Ee values were then calculated from Limpel's formula. […]

[2] = Solubility, guidance for forming solutions
From the text: Compositions for use in the systems herein are readily formulated by admixing the fungal cell wall degrading enzymes and the antifungal fungal cell membrane affecting compounds with non-toxic carriers appropriate for the particular use for a composition, e.g., agriculturally acceptable carriers for agricultural uses and pharmaceutically acceptable carriers for medicinal uses. They may be formulated as liquids (solutions or suspensions) or as solids. Since the fungal cell wall degrading enzymes need free water for activity, water must be present at the time of function. […] Water is a preferred vehicle where components are soluble in it. […] Organic solvents can also be used and may be required in some cases if a solution is desired. Guidance for forming solutions follows. […] Suspension can also be employed.

Compound `Clc1ccc(COC(Cn2ccnc2)c2ccc(Cl)cc2Cl)c(Cl)c1` (stereo not drawn) [Miconazole, miconazole] has an inhibition at 0.5 µg/mL (Botrytis cinerea; Botrytis cinerea, Table 4, enzyme 0 μg ml^−1 (fungicide alone), flusilazole 5 ng ml^−1, miconazole 0.5 μg ml^−1, read-out: % inhibition) of 19%, an inhibition at 0.5 µg/mL (Botrytis cinerea; Botrytis cinerea, Table 5, endochitinase from G. virens strain 41 at 25 μg ml^−1, with flusilazole 5 ng ml^−1, miconazole 0.5 μg ml^−1 or none (enzyme alone), read-out: % inhibition) of 99% and an inhibition at 0.5 µg/mL (Botrytis cinerea; Botrytis cinerea, Table 5, enzyme 0 μg ml^−1 (fungicide alone), flusilazole 5 ng ml^−1, miconazole 0.5 μg ml^−1, read-out: % inhibition) of 19%. It also gave an inhibition at 0.5 µg/mL (Botrytis cinerea; Botrytis cinerea, Table 6, enzyme 0 μg ml^−1 (fungicide alone), flusilazole 5 ng ml^−1, miconazole 0.5 μg ml^−1, read-out: % inhibition) of 19%, an inhibition at 0.5 µg/mL (Botrytis cinerea; Botrytis cinerea, Table 7, enzyme 0 μg ml^−1 (fungicide alone), flusilazole 5 ng ml^−1, miconazole 0.5 μg ml^−1, read-out: % inhibition) of 19% and an expected percent inhibition for an additive response (Limpel's formula) at 0.5 µg/mL (Botrytis cinerea; Botrytis cinerea, with Chitob. (P1) 25 μg ml^−1, flusilazole 5 ng ml^−1, miconazole 0.5 μg ml^−1) of 27.9%. It also gave an inhibition at 0.5 µg/mL (Botrytis cinerea; Botrytis cinerea, with Chitob. (P1) 25 μg ml^−1, flusilazole 5 ng ml^−1, miconazole 0.5 μg ml^−1, read-out: Io, percent inhibition observed) of 85%, an expected percent inhibition for an additive response (Limpel's formula) at 0.5 µg/mL (Botrytis cinerea; Botrytis cinerea, with Endoc. (41) 25 pg ml^−1 (so in the source), flusilazole 5 ng ml^−1, miconazole 0.5 μg ml^−1) of 19% and an inhibition at 0.5 µg/mL (Botrytis cinerea; Botrytis cinerea, with Endoc. (41) 25 pg ml^−1 (so in the source), flusilazole 5 ng ml^−1, miconazole 0.5 μg ml^−1, read-out: Io, percent inhibition observed) of 66%. It also gave an expected percent inhibition for an additive response (Limpel's formula) at 0.5 µg/mL (Botrytis cinerea; Botrytis cinerea, with Endoc. (P1) 25 μg ml^−1, flusilazole 5 ng ml^−1, miconazole 0.5 μg ml^−1) of 42.5%, an inhibition at 0.5 µg/mL (Botrytis cinerea; Botrytis cinerea, with Endoc. (P1) 25 μg ml^−1, flusilazole 5 ng ml^−1, miconazole 0.5 μg ml^−1, read-out: Io, percent inhibition observed) of 100% and an expected percent inhibition for an additive response (Limpel's formula) at 0.5 µg/mL (Botrytis cinerea; Botrytis cinerea, with Glucan. (P1) 25 μg ml^−1, flusilazole 5 ng ml^−1, miconazole 0.5 μg ml^−1) of 23%. The inhibition at 0.5 µg/mL (Botrytis cinerea; Botrytis cinerea, with Glucan. (P1) 25 μg ml^−1, flusilazole 5 ng ml^−1, miconazole 0.5 μg ml^−1, read-out: Io, percent inhibition observed) was 70%, the inhibition at 0.5 µg/mL (Botrytis cinerea; Table 4, endochitinase from T. harzianum strain P1 at 75 μg ml^−1, with flusilazole 5 ng ml^−1, miconazole 0.5 μg ml^−1 or none (enzyme alone), read-out: % inhibition) was 100% and the inhibition at 0.5 µg/mL (Botrytis cinerea; Table 6, chitobiosidase from T. harzianum strain P1 at 75 μg ml^−1, with flusilazole 5 ng ml^−1, miconazole 0.5 μg ml^−1 or none (enzyme alone), read-out: % inhibition) was 100%. For the same compound, the inhibition at 0.5 µg/mL (Botrytis cinerea; Table 7, glucan 1,3-β-glucosidase from T. harzianum strain P1 at 100 μg ml^−1, with flusilazole 5 ng ml^−1, miconazole 0.5 μg ml^−1 or none (enzyme alone), read-out: % inhibition) was 100%, the “ED50 of fungicide (dose effective for 50% inhibition)” value (Botrytis cinerea; no endochitinase (0 μg ml^−1)) was 3.0 µg/mL and the “ED50 of fungicide (dose effective for 50% inhibition)” value (Botrytis cinerea; with endochitinase from T. harzianum strain P1 at 10 μg ml^−1) was 0.06 µg/mL. The “ED50 of fungicide (dose effective for 50% inhibition)” value (Botrytis cinerea; with endochitinase from T. harzianum strain P1 at 25 μg ml^−1) was 0.04 µg/mL, the ED50 of fungicide (Botrytis cinerea; Table 10, no chitobiosidase (0 μg ml^−1)) was 3.0 µg/mL and the ED50 of fungicide (Botrytis cinerea; Table 10, with chitobiosidase from T. harzianum strain P1 at 25 μg ml^−1) was 0.06 µg/mL. It also gave an ED50 of fungicide (Botrytis cinerea; Table 10, with chitobiosidase from T. harzianum strain P1 at 50 μg ml^−1) of 0.045 µg/mL, an ED50 of fungicide (Botrytis cinerea; Table 10, with chitobiosidase from T. harzianum strain P1 at 75 μg ml^−1) of 0.04 µg/mL and an ED50 of fungicide (Botrytis cinerea; Table 10, with chitobiosidase from T. harzianum strain P1 at 100 μg ml^−1) of 0.03 µg/mL. The ED50 of fungicide (Botrytis cinerea; Table 11, no glucosidase (0 μg ml^−1)) was 3.0 µg/mL, the ED50 of fungicide (Botrytis cinerea; Table 11, with glucan 1,3-β-glucosidase from T. harzianum strain P1 at 25 μg ml^−1) was 0.27 µg/mL and the ED50 of fungicide (Botrytis cinerea; Table 11, with glucan 1,3-β-glucosidase from T. harzianum strain P1 at 50 μg ml^−1) was 0.04 µg/mL. For the same compound, the ED50 of fungicide (Botrytis cinerea; Table 11, with glucan 1,3-β-glucosidase from T. harzianum strain P1 at 75 μg ml^−1) was 0.0018 µg/mL, the ED50 of fungicide (Botrytis cinerea; Table 12, no endochitinase (0 μg ml^−1)) was 3.0 µg/mL and the ED50 of fungicide (Botrytis cinerea; Table 12, with endochitinase from G. virens strain 41 at 25 μg ml^−1) was 0.092 µg/mL. It also gave an ED50 of fungicide (Botrytis cinerea; Table 12, with endochitinase from G. virens strain 41 at 50 μg ml^−1) of 0.06 µg/mL, an ED50 of fungicide (Botrytis cinerea; Table 12, with endochitinase from G. virens strain 41 at 75 μg ml^−1) of 0.04 µg/mL and an ED50 of fungicide (Botrytis cinerea; Table 12, with endochitinase from G. virens strain 41 at 100 μg ml^−1) of 0.025 µg/mL. The ED50 (B. cinerea strain 12) was 3.0 (2-4) ng ml^−1, the ED50 [1] was 5.0 (4.5-5.5) ng ml^−1 and the “solubility (solvent in which the substance dissolves)” value [2] was “dissolves in 50% (v:v) ethanol”.
